US20080306115A1, “Midazole-4-Carboxamide Derivatives For Use As Cb1 Modulators” (priority 2005, published 2008)

Biological target: T1, CB1 receptor (Homo sapiens, UniProt P21554)
T1 construct: expressed in transfected cells
Assay: [35S]-GTPγS binding assay on membranes from cells stably transfected with the CB1 gene, antagonism of CP55940
Format: biochemical
Conditions: half maximal inhibition of GTPγS binding, EC80 concentration of agonist CP55940, 30° C., 45 min
Protocol: 10 μg of membranes prepared from cells stably transfected with the CB1 gene were suspended in […] of 100 mM NaCl, 5 mM MgCl2, 1 mM EDTA, 50 mM HEPES (pH 7.4), 1 mM DTT, 0.1% BSA and 100 μM GDP. To this was added an EC80 concentration of agonist (CP55940), the required concentration of test compound and 0.1 μCi [^35S]-GTPγS. The reaction was allowed to proceed at 30° C. for 45 min. Samples were then transferred on to GF/B filters using a cell harvester and washed with wash buffer (50 mM Tris (pH 7.4), 5 mM MgCl2, 50 mM NaCl). Filters were then covered with scintilant and counted for the amount of [^35S]-GTPγS retained by the filter.
Activity is measured in the absence of all ligands (minimum activity) or in the presence of an EC80 concentration of CP55940 (maximum activity). These activities are set as 0% and 100% activity respectively. At various concentrations of novel ligand, activity is calculated as a percentage of the maximum activity and plotted. The data are fitted using the equation y=A+((B−A)/1+((C/x) ÙD)) and the IC50 value determined as the concentration required to give half maximal inhibition of GTPγS binding under the conditions used.

T1 sequence (P21554 whole entry): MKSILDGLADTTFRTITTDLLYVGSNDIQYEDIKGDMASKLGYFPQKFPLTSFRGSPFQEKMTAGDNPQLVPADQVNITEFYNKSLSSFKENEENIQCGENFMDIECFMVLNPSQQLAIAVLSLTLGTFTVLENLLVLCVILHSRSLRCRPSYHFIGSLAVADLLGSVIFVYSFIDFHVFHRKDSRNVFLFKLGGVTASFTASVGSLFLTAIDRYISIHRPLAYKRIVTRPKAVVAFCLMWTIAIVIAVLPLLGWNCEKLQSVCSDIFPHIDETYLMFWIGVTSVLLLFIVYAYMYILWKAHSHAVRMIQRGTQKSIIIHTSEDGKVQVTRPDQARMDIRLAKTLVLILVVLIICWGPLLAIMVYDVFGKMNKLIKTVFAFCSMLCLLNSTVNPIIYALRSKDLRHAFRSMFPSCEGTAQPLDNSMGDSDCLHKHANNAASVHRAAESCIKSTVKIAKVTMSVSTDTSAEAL

Cc1c(C(=O)Nc2ccc(F)nc2)nc(-c2ccc(Cl)cc2Cl)n1-c1ccc(OS(=O)(=O)CCC(F)(F)F)cc1 [Example 3, 4-(2-(2,4-dichlorophenyl)-4-{[(6-fluoropyridin-3-yl)amino]carbonyl}-5-methyl-1H-imidazol-1-yl)phenyl 3,3,3-trifluoropropane-1-sulfonate]
IC50: 1.2 nM
